# Tests used:
# diabetic ulcers = assay: double arm, double-blind study of adenine gel in subjects with diabetic ulcers (wound healing); format: in vivo, human
# Procedure: The efficacy of adenine and/or a pharmaceutically acceptable salt thereof as a therapeutic agent for diabetic ulcers was evaluated through a double arm, double-blind study as disclosed in the present disclosure. The groups consist of a 0.02% adenine gel group and a placebo group. The basic information of the subjects is shown in Table 1, while the analysis of wound healing rates based on the Wagner-[…] ulcer classification system and initial wound area size is presented in Tables 2 to 4 below, respectively. Similarly, in a double arm, double-blind study as described in Example 1, the present disclosure evaluated the effects of the disclosed adenine and/or a pharmaceutically acceptable salt thereof as a medicament for treating the diabetic ulcers.
# fibroblast = fibroblast growth inhibition (stated finding, no method given); format: cell-based
# COX-2 = COX-2 protein expression (stated finding, no method given); format: cell-based
structure (smiles),measurement,setting,value
Nc1ncnc2nc[nH]c12 [adenine],wound healing effect (in words),"diabetic ulcers; Grade 1 and/or Grade 2 ulcers, or wound area 1.5 to 25 square centimeters",remarkably superior effects in accelerating and enhancing wound healing
same,scar formation,diabetic ulcers; directly administered to ulcer wounds in diabetic patients,scar formation is reduced
same,onset of wound healing (in words),diabetic ulcers; results from Table 5,rapid and effective healing starting from the fourth week
same,fibroblast growth,fibroblast,inhibit fibroblast growth
same,protein expression of COX-2,COX-2,reduce protein expression of COX-2
